Values quoted from earlier work as cited in article PMC9516332 (Frontiers in Oncology, 2022).
Like-named read-outs stand apart in the source and are kept apart here.

What was measured:
Settings in all cases: cited from earlier work
[1] = target: panel of 255 wild-type kinases (Homo sapiens, UniProt P07949)
[2] = target: panel of 255 wild-type kinases (Homo sapiens, UniProt P08631)
[3] = target: panel of 255 wild-type kinases (Homo sapiens, UniProt P08922)
[4] = target: panel of 255 wild-type kinases (Homo sapiens, UniProt P49761)
[5] = target: T1, panel of 255 wild-type kinases (Homo sapiens, UniProt P53778)
T1 sequence (P53778 1-367): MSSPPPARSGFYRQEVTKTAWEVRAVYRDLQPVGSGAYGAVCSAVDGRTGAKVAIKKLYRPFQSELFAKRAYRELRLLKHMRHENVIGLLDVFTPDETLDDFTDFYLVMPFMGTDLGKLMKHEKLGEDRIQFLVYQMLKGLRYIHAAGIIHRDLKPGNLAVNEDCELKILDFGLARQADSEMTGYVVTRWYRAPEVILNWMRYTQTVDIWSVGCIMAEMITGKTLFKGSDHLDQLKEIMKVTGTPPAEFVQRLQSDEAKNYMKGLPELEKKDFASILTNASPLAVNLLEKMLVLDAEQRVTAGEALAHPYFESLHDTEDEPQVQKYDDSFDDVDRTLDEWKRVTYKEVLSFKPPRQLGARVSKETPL

[6] = target: T2, panel of 255 wild-type kinases (Homo sapiens, UniProt Q06418)
T2 sequence (Q06418 41-890): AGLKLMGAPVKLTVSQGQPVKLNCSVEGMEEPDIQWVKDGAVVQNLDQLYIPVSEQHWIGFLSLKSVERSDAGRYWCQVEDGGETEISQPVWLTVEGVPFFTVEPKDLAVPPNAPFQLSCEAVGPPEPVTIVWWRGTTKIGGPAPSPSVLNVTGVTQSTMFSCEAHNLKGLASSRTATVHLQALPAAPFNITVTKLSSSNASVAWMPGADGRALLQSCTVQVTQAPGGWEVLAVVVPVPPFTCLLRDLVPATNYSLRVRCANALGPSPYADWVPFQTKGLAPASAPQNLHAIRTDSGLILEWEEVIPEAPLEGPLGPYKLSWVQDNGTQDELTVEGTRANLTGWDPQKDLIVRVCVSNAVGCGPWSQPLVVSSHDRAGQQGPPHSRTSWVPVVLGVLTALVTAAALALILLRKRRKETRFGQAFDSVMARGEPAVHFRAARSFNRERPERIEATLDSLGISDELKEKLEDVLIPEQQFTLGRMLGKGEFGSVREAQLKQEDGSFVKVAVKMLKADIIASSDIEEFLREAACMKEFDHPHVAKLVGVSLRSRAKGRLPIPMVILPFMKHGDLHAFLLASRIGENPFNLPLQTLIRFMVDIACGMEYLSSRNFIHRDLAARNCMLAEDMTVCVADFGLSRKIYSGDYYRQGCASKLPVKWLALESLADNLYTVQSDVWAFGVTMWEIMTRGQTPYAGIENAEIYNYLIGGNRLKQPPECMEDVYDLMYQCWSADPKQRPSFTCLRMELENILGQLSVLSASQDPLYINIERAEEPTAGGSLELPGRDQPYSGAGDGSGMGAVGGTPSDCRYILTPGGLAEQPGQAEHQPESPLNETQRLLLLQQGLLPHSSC

[7] = target: panel of 255 wild-type kinases (Homo sapiens, UniProt Q13153)
[8] = target: panel of 255 wild-type kinases (Homo sapiens, UniProt Q9Y6E0)
[9] = kinase RET, 1 µmol/L single concentration, ref DOI: 10.1158/1535-7163.MCT-18-0877
[10] = kinase HCK, 1 µmol/L single concentration, ref DOI: 10.1158/1535-7163.MCT-18-0877
[11] = kinase ROS, 1 µmol/L single concentration, ref DOI: 10.1158/1535-7163.MCT-18-0877
[12] = kinase CLK3, 1 µmol/L single concentration, ref DOI: 10.1158/1535-7163.MCT-18-0877
[13] = p38γ, 1 µmol/L single concentration, ref DOI: 10.1158/1535-7163.MCT-18-0877
[14] = kinase TYRO3, 1 µmol/L single concentration, ref DOI: 10.1158/1535-7163.MCT-18-0877
[15] = PAK1, 1 µmol/L single concentration, ref DOI: 10.1158/1535-7163.MCT-18-0877
[16] = MST3, 1 µmol/L single concentration, ref DOI: 10.1158/1535-7163.MCT-18-0877
[17] = kinase HCK, 1 µmol/L single concentration, ref DOI: 10.1371/journal.pone.0092146
[18] = kinase CLK3, 1 µmol/L single concentration, ref DOI: 10.1371/journal.pone.0092146
[19] = PAK1, 1 µmol/L single concentration, ref DOI: 10.1371/journal.pone.0092146
[20] = MST3, 1 µmol/L single concentration, ref DOI: 10.1371/journal.pone.0092146
[21] = kinase RET, 1 µmol/L single concentration, ref DOI: 10.1371/journal.pone.0092146
[22] = kinase ROS, 1 µmol/L single concentration, ref DOI: 10.1371/journal.pone.0092146
[23] = p38γ, 1 µmol/L single concentration, ref DOI: 10.1371/journal.pone.0092146
[24] = kinase TYRO3, 1 µmol/L single concentration, ref DOI: 10.1371/journal.pone.0092146

SMILES | %-inhibition at 1 µmol/L, RET [1, 9] [%] | %-inhibition at 1 µmol/L, HCK [2, 10] [%] | %-inhibition at 1 µmol/L, ROS [3, 11] [%] | %-inhibition at 1 µmol/L, CLK3 [4, 12] [%] | %-inhibition, p38γ [5, 13] [%] | %-inhibition at 1 µmol/L, TYRO3 [6, 14] [%] | %-inhibition, PAK1 [7, 15] [%] | %-inhibition, MST3 [8, 16] [%] | %-inhibition at 1 µmol/L, HCK [2, 17] [%] | %-inhibition at 1 µmol/L, CLK3 [4, 18] [%] | %-inhibition, MST3 [8, 20] [%] | further results
CC#CC(=O)N1CCC[C@H]1c1nc(-c2ccc(C(=O)Nc3ccccn3)cc2)c2c(N)nccn12 [acalabrutinib] | 14 | 0.452 | 1.79 | -15 | -1.74 | 3 | -0.369 | -2.52 | – | – | – | –
CCc1cc2c(cc1N1CCC(N3CCOCC3)CC1)C(C)(C)c1[nH]c3cc(C#N)ccc3c1C2=O [alectinib] | 91 | 43 | 14 | -2.36 | 1.73 | 30 | -14 | -2.37 | – | – | – | –
COc1cc(N2CCC(N3CCN(C)CC3)CC2)ccc1Nc1ncc(Cl)c(Nc2ccccc2P(C)(C)=O)n1 [brigatinib] | – | – | – | – | – | – | – | – | – | – | – | %-inhibition at 1 µmol/L, RET [1]: 96%; %-inhibition at 1 µmol/L, HCK [2]: 78%; %-inhibition at 1 µmol/L, ROS [3]: 101%; %-inhibition at 1 µmol/L, CLK3 [4]: 33%; %-inhibition, p38γ [5]: 3%; %-inhibition at 1 µmol/L, TYRO3 [6]: 27%; %-inhibition, PAK1 [7]: 4.27%; %-inhibition, MST3 [8]: 13%
Cc1cc(Nc2ncc(Cl)c(Nc3ccccc3S(=O)(=O)C(C)C)n2)c(OC(C)C)cc1C1CCNCC1 [ceritinib] | 32 | 15 | 101 | 36 | 3.32 | 7 | 7.58 | 31 | – | – | – | –
O=C(c1ccc(F)c(F)c1Nc1ccc(I)cc1F)N1CC(O)([C@@H]2CCCCN2)C1 [cobimetinib] | 4 | -3.63 | 3 | 4 | 2 | 4.55 | 3.21 | 4.62 | – | – | – | –
C[C@@H](Oc1cc(-c2cnn(C3CCNCC3)c2)cnc1N)c1c(Cl)ccc(F)c1Cl [crizotinib] | – | – | – | – | – | – | – | – | 26 | -5 | 11 | %-inhibition, PAK1 [7, 19]: -4%
CC(C)(C)c1nc(-c2cccc(NS(=O)(=O)c3c(F)cccc3F)c2F)c(-c2ccnc(N)n2)s1 [dabrafenib] | – | – | – | – | – | – | – | – | 57 | 17 | 0.532 | %-inhibition at 1 µmol/L, RET [1, 21]: 49%; %-inhibition at 1 µmol/L, ROS [3, 22]: 8.55%; %-inhibition, p38γ [5, 23]: 0.311%
C=CC(=O)N1CCC[C@@H](n2nc(-c3ccc(Oc4ccccc4)cc3)c3c(N)ncnc32)C1 [ibrutinib] | 88 | 100 | 5 | – | 3.51 | 12 | 6.57 | 8 | – | – | – | –
CO[C@@H]1[C@H](N(C)C(=O)c2ccccc2)C[C@H]2O[C@]1(C)n1c3ccccc3c3c4c(c5c6ccccc6n2c5c31)C(=O)NC4 [midostaurin] | 94 | – | – | – | 7 | 31 | – | – | – | – | – | %-inhibition at 1 µmol/L, ROS [3]: 102%
C=CC(=O)Nc1cc(Nc2nccc(-c3cn(C)c4ccccc34)n2)c(OC)cc1N(C)CCN(C)C [osimertinib] | 7 | 0.0489 | 101 | 6 | 2.19 | 8 | -44 | 5.71 | – | – | – | –
CC(=O)Nc1cccc(-n2c(=O)n(C3CC3)c(=O)c3c(Nc4ccc(I)cc4F)n(C)c(=O)c(C)c32)c1 [trametinib] | – | – | – | – | – | – | – | – | -2.84 | -0.0684 | 1.75 | %-inhibition at 1 µmol/L, RET [1, 21]: -8%; %-inhibition at 1 µmol/L, ROS [3, 22]: -0.611%; %-inhibition, p38γ [5, 23]: 0.684%; %-inhibition at 1 µmol/L, TYRO3 [6, 24]: -2.65%; %-inhibition, PAK1 [7, 19]: -1.35%
CCCS(=O)(=O)Nc1ccc(F)c(C(=O)c2c[nH]c3ncc(-c4ccc(Cl)cc4)cc23)c1F [vemurafenib] | – | – | – | – | – | – | – | – | 30 | -14 | -1.73 | %-inhibition at 1 µmol/L, RET [1, 21]: 32%; %-inhibition at 1 µmol/L, ROS [3, 22]: 2%; %-inhibition, p38γ [5, 23]: -0.299%; %-inhibition at 1 µmol/L, TYRO3 [6, 24]: 3.16%; %-inhibition, PAK1 [7, 19]: -5%
